Two compounds from US20230255943A1, “MMP-9 AND MMP-12 INHIBITION FOR TREATING SPINAL CORD INJURY OR RELATED INJURY TO NEUROLOGICAL TISSUE” (The University of Birmingham, priority 2020, published 2023) can be followed below.

One test has as its target T1, MMP-2 (Mus musculus, UniProt P33434).
T1 construct: from tissue
Put plainly: MMP-2 activity after DC injury and AZD1236 administration. To be noted: oral and intrathecal, effective dose. The test is classed as in vivo.

A further test has as its target T2, MMP-12 (Mus musculus, UniProt P34960).
T2 construct: from tissue; host or cells: mouse spinal cord lesion site homogenate, serum and CSF
Put plainly: MMP-12 enzyme activity after SCI in mice (SensoLyte 520 fluorimetric assay). The test is classed as in vivo. To be noted: for suppression of MMP-12 activity in CSF / suppression of MMP-12 activity in serum / suppression of MMP-12 activity in spinal cord tissues: DC injury; for suppression of MMP-12 activity in spinal cord tissues: lowest most effective dose. The protocol: (§1) For oral delivery of AZD1236, n=6 adult male C57BL6 mice/group (Charles River, Margate, UK) were randomly allocated to either: (1), Sham (control; partial laminectomy but no DC crush injury); (2), DC crush injury+vehicle (partial laminectomy followed by DC crush injury and injection of vehicle); (3), DC crush injury+100 mg/kg AZD1236; (4), DC crush injury+200 mg/kg AZD1236; and (5), DC crush injury+300 mg/kg AZD1236. For intrathecal (it) delivery of AZD1236, adult male C57BL6 mice (25-30 g) (Charles River, Margate, UK) were randomly allocated to either: (1), Sham (control; partial laminectomy but no DC crush injury); (2), DC crush injury+vehicle (partial laminectomy followed by DC crush injury and injection of vehicle); (3), DC crush injury+2.5 mg/kg AZD1236; (4), DC crush injury+5 mg/kg AZD1236; and (5), DC crush injury+10 mg/kg AZD1236. For intrathecal delivery an indwelling atlanto-occipital intrathecal catheter was inserted into the intrathecal space, as described previously (F. A. Oladosu, B. P. Ciszek, S. C. O'Buckley, A. G. Nackley, Novel intrathecal and subcutaneous catheter delivery systems in the mouse. J Neurosci Methods 264, 119-128 (2016)). Briefly, with mice in the sternal recumbency a small incision was made at the nape of the neck followed by detachment of the muscles on either side of the external occipital crest to expose the A-O membrane. The membrane was incised and a 6 cm Alzet mouse intrathecal catheter (Alzet, Cupertino, Calif., USA) and polyurethane segments were gently guided 2.5 cm into the intrathecal space. The catheter was secured using 4-0 silk sutures (Oasis Medical, IL) and the exposed end of the catheter was sealed off with a stainless-steel plug and affixed to the upper back. Animals were injected immediately with vehicle or AZD1236 followed by a 10 μl PBS catheter flush. Injections were repeated every twice daily for the first 3 days after injury and drugs and vehicle reagents were delivered over 1 min time period using a Hamilton microlitre syringe (Hamilton Co, USA). Where specified intact animals with no surgical procedures were also used. All lesions were administered under 5% isofluorane induced inhalation anaesthesia, with 1.51/min O2. Pre- and post-injury analgesia was also provided.
DC crush injury was administered bilaterally at the T8 vertebral level as described previously (S. Surey, M. Berry, A. Logan, R. Bicknell, Z. Ahmed, Differential cavitation, angiogenesis and wound-healing responses in injured mouse and rat spinal cords. Neuroscience 275, 62-80 (2014); M. L. Read, S. Mir, R. Spice, R. J. Seabright, E. L. Suggate, Z. Ahmed, M. Berry, A. Logan, Profiling RNA interference (RNAi)-mediated toxicity in neural cultures for effective short interfering RNA design. J Gene Med 11, 523-534 (2009)). Briefly, calibrated watchmaker's forceps were separated by 0.5 mm and inserted through the dorsal cord meninges to a depth of 0.45 mm in mice and separated by 1 mm and inserted through the dorsal cord meninges to a depth of 1.0 mm in rats, and the DC were crushed for 3 seconds. AZD1236 or vehicle was administered twice daily by oral gavage or intrathecally, either immediately for the first 3 days or 24 hours after injury and treating twice daily until day 4 (i.e. 3 days of AZD1236 dosing). All experiments were performed with n=6 mice/group and repeated on at least 2-3 independent occasions (total=12-18 animals/group/test).
CC SCI was administered at the T7-T8 vertebral level after exposure of T6-T9 by laminectomy. […]

The test system of another test is IL-1β, TNF-α and IL-6. Put plainly: qRT-PCR of proinflammatory pain markers after DC injury in mice. The test is classed as in vivo, mouse. To be noted: for injury-induced rise of proinflammatory pain markers IL-1β, TNF-α and IL-6: 3d after DC injury. The protocol:
as §1, with “The catheter was secured using 4-0 silk sutures (Oasis Medical, IL) and the exposed end of the catheter was sealed off with a stainless-steel plug and affixed to the upper back. Animals were injected immediately with vehicle or AZD1236 followed by a 10 μl PBS catheter flush. Injections were repeated every twice daily for the first 3 days after injury and drugs and vehicle reagents were delivered over 1 min time period using a Hamilton microlitre syringe (Hamilton Co, USA). Where specified intact animals with no surgical procedures were also used. All lesions were administered under 5% isofluorane induced inhalation anaesthesia, with 1.51/min O2. Pre- and post-injury analgesia was also provided.” left out
DC crush injury was administered bilaterally at the T8 vertebral level as described previously (S. Surey, M. Berry, A. Logan, R. Bicknell, Z. Ahmed, Differential cavitation, angiogenesis and wound-healing responses in injured mouse and rat spinal cords. Neuroscience 275, 62-80 (2014); M. L. Read, S. Mir, R. Spice, R. J. Seabright, E. L. Suggate, Z. Ahmed, M. Berry, A. Logan, Profiling RNA interference (RNAi)-mediated toxicity in neural cultures for effective short interfering RNA design. J Gene Med 11, 523-534 (2009)). […]
(In general: Real-time PCR tracks product formation cycle by cycle.)

The test system of test [1] is rats with DC crush injury. The test is described as follows: Ladder crossing (locomotor function) in rat DC model. Particulars: over 6 weeks. The test is classed as in vivo. The method, then: The efficacy of oral AZD3342 in the DC injury model in adult Sprague-Dawley rat was also assessed. Animals were divided into 6 groups: (1), Sham (control); (2), DC crush injury+Vehicle; (3), DC crush injury+15 mg/kg AZD3342; (4), DC crush injury+75 mg/kg […]; (5), DC crush injury+375 mg/kg AZD3342; and (6), DC crush injury+Melatonin. Animals were dosed twice daily with oral AZD3342 or vehicle with the experimenters masked to the treatment conditions. These experiments were performed with n=6 rats/group and repeated on 2-3 independent occasions (total n=12-18 rats/group/test).
Functional testing after DC lesion and treatment was carried out as described previously (N. D. Fagoe, C. L. Attwell, R. Eggers, L. Tuinenbreijer, D. Kouwenhoven, J. Verhaagen, M. R. Mason, Evaluation of Five Tests for Sensitivity to Functional Deficits following Cervical or Thoracic Dorsal Column Transection in the Rat. PLoS One 11, e0150141 (2016)). […]
Horizontal ladder test: This tests the animals locomotor function and is performed on a 0.9-meter-long horizontal ladder with a diameter of 15.5 cm and randomly adjusted rungs with variable gaps of 3.5-5.0 cm. Animals were assessed traversing the ladder and the left and right rear paw slips were recorded along with the total number of steps and the mean error rate as: the number of slips/total number of steps.

The mark [2] stands for this setting: optimal doses, 24 h delay vs immediate.

T2 sequence (P34960 110-473): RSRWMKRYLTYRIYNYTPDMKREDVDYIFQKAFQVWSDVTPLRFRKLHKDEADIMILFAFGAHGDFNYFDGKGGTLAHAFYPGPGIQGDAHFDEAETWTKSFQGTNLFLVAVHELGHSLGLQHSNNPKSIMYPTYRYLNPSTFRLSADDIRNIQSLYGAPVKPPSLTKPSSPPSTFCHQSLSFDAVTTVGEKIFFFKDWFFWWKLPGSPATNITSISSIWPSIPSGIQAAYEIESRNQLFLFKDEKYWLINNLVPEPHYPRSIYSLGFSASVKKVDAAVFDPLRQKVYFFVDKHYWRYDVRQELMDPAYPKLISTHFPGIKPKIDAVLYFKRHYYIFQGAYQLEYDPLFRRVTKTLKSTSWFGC
T1 sequence (P33434 110-662): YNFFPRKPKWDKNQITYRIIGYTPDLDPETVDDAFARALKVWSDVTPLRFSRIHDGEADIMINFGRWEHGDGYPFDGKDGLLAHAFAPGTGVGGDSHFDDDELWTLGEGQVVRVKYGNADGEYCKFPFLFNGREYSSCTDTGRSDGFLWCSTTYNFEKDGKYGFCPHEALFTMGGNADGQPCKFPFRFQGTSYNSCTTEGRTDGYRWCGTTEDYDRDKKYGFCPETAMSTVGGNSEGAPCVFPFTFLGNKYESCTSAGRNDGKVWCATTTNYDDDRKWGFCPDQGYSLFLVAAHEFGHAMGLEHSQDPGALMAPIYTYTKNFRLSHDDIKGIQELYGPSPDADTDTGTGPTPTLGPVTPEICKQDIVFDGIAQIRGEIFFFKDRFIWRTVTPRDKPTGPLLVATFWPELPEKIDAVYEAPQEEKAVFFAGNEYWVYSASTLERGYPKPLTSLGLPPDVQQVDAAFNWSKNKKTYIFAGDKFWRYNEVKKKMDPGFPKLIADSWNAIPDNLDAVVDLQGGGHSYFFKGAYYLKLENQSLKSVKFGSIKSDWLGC

With `C[C@]1(CS(=O)(=O)N2CC=C(C#Cc3cnc(C4CC4)nc3)CC2)NC(=O)NC1=O` [AZD1236], the “DC injury-induced rise in MMP-2 activity” value at MMP-2 is “no difference”. The “suppression of MMP-12 activity in CSF” value is 90±1% at MMP-12 (intrathecal delivery) and 69±3% at MMP-12 (oral delivery, 200 mg/kg). Moreover, the “suppression of MMP-12 activity in serum” value came out at 71±1% on MMP-12 (intrathecal delivery) and 90±3% on MMP-12 (oral delivery, 200 mg/kg). For the same compound, the figures for the “suppression of MMP-12 activity in spinal cord tissues” value at MMP-12 (intrathecal) and at MMP-12 (oral) were 86±4% and 85±3%, respectively. In addition, the “time for MMP-12 activity to return to DC+Vehicle injury levels after withdrawal” value on MMP-12 (injury site, oral dosing withdrawn after 3 d) is 5 days. At MMP-12 (setting [2]), the “MMP-12 activity, 24-h delayed treatment” value was “equally as effective as immediate delivery”. For the same compound, the “injury-induced rise of proinflammatory pain markers IL-1β, TNF-α and IL-6” value in the test with IL-1β, TNF-α and IL-6 (intrathecal, 5 mg/kg) is “reduced them to sham-treated levels”; in the test with IL-1β, TNF-α and IL-6 (oral, 200 mg/kg) it was “reduced them to sham-treated levels”. Besides, the “proinflammatory cytokines, 24-h delayed treatment” value in the test on IL-1β, TNF-α and IL-6 (setting [2]) was “equally as effective as immediate delivery”.
With `C[C@]1(CS(=O)(=O)N2CCC(Oc3ccc(Cl)cn3)CC2)NC(=O)NC1=O` [AZD3342, (5S)-5-[4-(5-chloro-pyridin-2-yloxy)-piperidine-1-sulfonylmethyl]-5-methylimidazolidine-2,4-dione], in test [1], the “locomotor function (ladder crossing)” value was “significantly improved”.
